Laboratory results from ChEMBL document CHEMBL1240510, “Synthesis, stereochemical separation, and biological evaluation of selective inhibitors of human MAO-B: 1-(4-arylthiazol-2-yl)-2-(3-methylcyclohexylidene)hydrazines” (J Med Chem, 2010).

Target: T1, Amine oxidase [flavin-containing] A (Homo sapiens, UniProt P21397)
T1 sequence (P21397 whole entry): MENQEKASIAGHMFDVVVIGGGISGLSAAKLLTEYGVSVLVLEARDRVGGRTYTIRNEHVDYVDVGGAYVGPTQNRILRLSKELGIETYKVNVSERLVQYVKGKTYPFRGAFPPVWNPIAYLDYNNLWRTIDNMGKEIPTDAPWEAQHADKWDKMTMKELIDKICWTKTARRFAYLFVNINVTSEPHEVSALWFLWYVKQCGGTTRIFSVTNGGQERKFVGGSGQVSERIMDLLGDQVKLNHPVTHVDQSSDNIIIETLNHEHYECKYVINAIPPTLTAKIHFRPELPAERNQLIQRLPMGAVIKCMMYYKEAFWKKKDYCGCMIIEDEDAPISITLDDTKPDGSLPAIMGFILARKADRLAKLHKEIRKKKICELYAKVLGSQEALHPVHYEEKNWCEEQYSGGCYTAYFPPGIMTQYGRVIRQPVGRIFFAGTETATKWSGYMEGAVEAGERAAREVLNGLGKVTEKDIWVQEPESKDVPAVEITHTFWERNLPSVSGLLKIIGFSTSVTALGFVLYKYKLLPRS
Assay: biochemical
Assay type: cell-based, BTI-TN-5B1-4

IC50	Compound
43.8 µM	CC1CCC/C(=N/Nc2nc(-c3ccc(Cl)cc3Cl)cs2)C1 (centres undefined)
4.26 µM	COc1ccc(-c2csc(N/N=C3/CCC[C@@H](C)C3)n2)cc1
37.8 µM	CC1CCC/C(=N/Nc2nc(-c3ccccc3)cs2)C1 (centres undefined)
22.8 µM	C[C@@H]1CCC/C(=N/Nc2nc(-c3ccc(Cl)cc3)cs2)C1
20.6 µM	CC1CCC/C(=N/Nc2nc(-c3ccc(C#N)cc3)cs2)C1 (centres undefined)
21.9 µM	C[C@@H]1CCC/C(=N/Nc2nc(-c3ccc(C#N)cc3)cs2)C1
40.6 µM	C[C@@H]1CCC/C(=N/Nc2nc(-c3ccc(Cl)cc3Cl)cs2)C1
38.6 µM	C[C@@H]1CCC/C(=N/Nc2nc(-c3ccccc3)cs2)C1
23.1 µM	CC1CCC/C(=N/Nc2nc(-c3ccc(Cl)cc3)cs2)C1 (centres undefined)
